Test results taken from ChEMBL document CHEMBL6109148, “Development of Squaramides as Allosteric Modulators of the CB1 Receptor: Synthesis, Computational Studies, Biological Characterization, and Effects against Cocaine-Induced Behavioral Sensitization and Reinstatement in Rats” (J Med Chem, 2025).
One block for each molecule: values may come before it.

Legend:
[1] = Drug concentration in plasma of Sprague-Dawley rat at 5.6 mg/kg, ip measured after 8 hrs by LC-MS/MS analysis; assay type: ADME, organism-based
[2] = Drug concentration in plasma of Sprague-Dawley rat at 5.6 mg/kg, ip measured after 0.5 hrs by LC-MS/MS analysis; assay type: ADME, organism-based
[3] = Apparent permeability across apical to basal side in MDCK-MDR1 cells at 10 uM measured for 30 to 90 mins by LC-MS/MS analysis; assay type: ADME, cell-based, Canis lupus familiaris; settings: dog, mdck-mdr1, 10 µM, time 30-90 min
[4] = biological target: Cannabinoid receptor 1 (Mus musculus, UniProt P47746); assay: Negative allosteric modulation of CD-1 mouse CB1 receptor extracted from cerebellum membrane in presence of [35S]GTP-gammaS; assay type: cell membranes
[5] = Apparent permeability across basal to apical side in MDCK-MDR1 cells at 10 uM measured for 30 to 90 mins by LC-MS/MS analysis; assay type: ADME, cell-based, Canis lupus familiaris; settings: dog, mdck-mdr1, 10 µM, time 30-90 min
[6] = Stability in human liver microsomes assessed as clearance at 1 uM preincubated for 10 mis followed by NADPH addition measured for 15 to 60 mins by LC-MS/MS analysis; assay type: ADME, Microsome; settings: time 25-70 min
[7] = Drug concentration in plasma of Sprague-Dawley rat at 1 mg/kg, iv measured after 5 mins by LC-MS/MS analysis; assay type: ADME, organism-based
[8] = Drug concentration in brain of Sprague-Dawley rat at 5.6 mg/kg, ip measured after 8 hrs by LC-MS/MS analysis; assay type: ADME, organism-based; settings: read-out: Ct
[9] = Protein binding in human plasma at 1 uM incubated for 6 hrs by LC-MS/MS analysis; assay type: ADME, cell-free
[10] = Half life in Sprague-Dawley rat at 1 mg/kg, iv measured for 0.08 to 8 hrs by LC-MS/MS analysis; assay type: ADME, organism-based; settings: in vivo, time 0.08-8 hrs
[11] = biological target: T1, Cannabinoid receptor 1 (Homo sapiens, UniProt P21554); assay: Negative allosteric modulation of human CB1 extracted from HEK293 cell membrane assessed as specific binding of [3H]CP55940 incubated for 90 mins; assay type: cell membranes
[12] = Drug concentration in brain of Sprague-Dawley rat at 5.6 mg/kg, ip measured after 1 hr by LC-MS/MS analysis; assay type: ADME, organism-based; settings: read-out: Ct
[13] = Drug concentration in brain of Sprague-Dawley rat at 5.6 mg/kg, ip measured after 0.5 hrs by LC-MS/MS analysis; assay type: ADME, organism-based; settings: read-out: Ct
[14] = Stability in human hepatocytes assessed as half life at 1 uM measured up to 120 mins by LC/MS/MS analysis; assay type: ADME, cell-based, Hepatocyte; settings: 2 h
[15] = Drug excretion in Sprague-Dawley rat at 1 mg/kg, iv measured after 4 hrs by LC-MS/MS analysis; assay type: ADME, organism-based; settings: in vivo
[16] = Drug concentration in brain of Sprague-Dawley rat at 5.6 mg/kg, ip measured after 0.25 hrs by LC-MS/MS analysis; assay type: ADME, organism-based; settings: read-out: Ct
[17] = Drug concentration in plasma of Sprague-Dawley rat at 5.6 mg/kg, ip measured after 1 hr by LC-MS/MS analysis; assay type: ADME, organism-based
[18] = Kinetic solubility of compound in PBS incubated for 2 hrs by LC-MS/MS analysis; assay type: physicochemical; settings: read-out: Kinetic_solubility
[19] = biological target: T1, Cannabinoid receptor 1; assay: Negative allosteric modulation of human CB1 extracted from HEK293 cell membrane assessed as increase in forskolin-induced cAMP production preincubated for 15 mins followed by forskolin/CP55940 addition by BRET CAMYEL cAMP assay
[20] = Protein binding in rat plasma at 1 uM incubated for 6 hrs by LC-MS/MS analysis; assay type: ADME, cell-free
[21] = Protein binding in rat brain at 1 uM incubated for 6 hrs by LC-MS/MS analysis; assay type: ADME, tissue-based
[22] = Drug concentration in plasma of Sprague-Dawley rat at 5.6 mg/kg, ip measured after 0.25 hrs by LC-MS/MS analysis; assay type: ADME, organism-based
[23] = Stability in human liver microsomes assessed as half life at 1 uM preincubated for 10 mis followed by NADPH addition measured for 15 to 60 mins by LC-MS/MS analysis; assay type: ADME, Microsome; settings: time 25-70 min
[24] = Stability in human hepatocytes assessed as clearance at 1 uM measured up to 120 mins by LC/MS/MS analysis; assay type: ADME, cell-based, Hepatocyte; settings: 2 h
[25] = biological target: Cannabinoid receptor 2 (Homo sapiens) (UniProt P34972); assay: Antagonist activity at human CB2 receptor stably expressed in CHO-RD-HGA16 cells assessed as inhibition of CP55940-induced intracellular calcium mobilization at 10 uM by FLIPR assay relative to CP55940; assay type: functional, cell-based; parameters: scale not given: the % may be the effect or the level left
[26] = biological target: T1, Cannabinoid receptor 1; assay: Agonist activity at human CB1 receptor stably expressed in CHO-RD-HGA16 cells assessed as increase in intracellular calcium mobilization at 10 uM by FLIPR assay relative to CP55940; assay type: functional, cell-based
[27] = biological target: T1, Cannabinoid receptor 1; assay: Negative allosteric modulation of human CB1 receptor stably expressed in CHO-RD-HGA16 cells assessed as inhibition of CP55940-induced intracellular calcium mobilization incubated for 15 mins by FLIPR assay; assay type: functional, cell-based

Cannabinoid receptor 2 (Homo sapiens), sequence (P34972 whole entry): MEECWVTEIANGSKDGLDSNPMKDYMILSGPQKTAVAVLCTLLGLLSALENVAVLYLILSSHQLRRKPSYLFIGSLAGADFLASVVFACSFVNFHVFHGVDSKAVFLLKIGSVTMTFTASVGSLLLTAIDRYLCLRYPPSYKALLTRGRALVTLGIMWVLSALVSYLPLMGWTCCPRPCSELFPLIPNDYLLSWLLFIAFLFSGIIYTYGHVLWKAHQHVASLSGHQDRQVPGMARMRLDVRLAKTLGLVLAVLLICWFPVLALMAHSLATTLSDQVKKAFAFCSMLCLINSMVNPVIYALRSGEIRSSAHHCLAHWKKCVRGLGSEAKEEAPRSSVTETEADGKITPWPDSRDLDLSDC
Cannabinoid receptor 1 (Mus musculus, UniProt P47746), sequence (P47746 whole entry): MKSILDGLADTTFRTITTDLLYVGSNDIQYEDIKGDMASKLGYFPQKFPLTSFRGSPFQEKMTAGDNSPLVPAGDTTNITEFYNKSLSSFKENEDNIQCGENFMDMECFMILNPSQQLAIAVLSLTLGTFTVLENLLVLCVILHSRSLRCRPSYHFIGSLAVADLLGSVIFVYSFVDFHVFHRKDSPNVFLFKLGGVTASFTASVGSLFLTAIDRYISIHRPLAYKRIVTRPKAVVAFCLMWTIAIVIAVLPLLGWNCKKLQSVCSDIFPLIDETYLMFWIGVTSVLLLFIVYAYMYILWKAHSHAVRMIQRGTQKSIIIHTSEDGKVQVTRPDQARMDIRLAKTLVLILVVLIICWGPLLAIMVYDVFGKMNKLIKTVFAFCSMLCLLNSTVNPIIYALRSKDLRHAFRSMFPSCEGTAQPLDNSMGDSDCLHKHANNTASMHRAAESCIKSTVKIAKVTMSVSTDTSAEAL
T1 sequence (P21554 whole entry): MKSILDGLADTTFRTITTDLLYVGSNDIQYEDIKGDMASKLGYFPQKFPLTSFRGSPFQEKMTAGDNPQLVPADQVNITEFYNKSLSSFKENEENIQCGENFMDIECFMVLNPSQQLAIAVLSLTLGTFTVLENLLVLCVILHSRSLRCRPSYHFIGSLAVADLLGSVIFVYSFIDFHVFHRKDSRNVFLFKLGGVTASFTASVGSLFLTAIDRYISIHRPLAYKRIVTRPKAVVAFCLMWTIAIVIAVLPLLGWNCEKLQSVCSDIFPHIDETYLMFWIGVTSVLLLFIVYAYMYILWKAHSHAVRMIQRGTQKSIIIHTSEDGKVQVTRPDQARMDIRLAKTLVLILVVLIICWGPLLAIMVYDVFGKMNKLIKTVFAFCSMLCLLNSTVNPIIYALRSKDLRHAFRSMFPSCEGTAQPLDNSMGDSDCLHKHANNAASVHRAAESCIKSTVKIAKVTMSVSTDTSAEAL

concentration at 8 h [1]: 4.6 ng/mL
concentration at 0.5 h [2]: 11.7 ng/mL
Papp [3]: 3.1 10^-6 cm/s
IC50 [4]: 214 nM
Papp [5]: 6.4 10^-6 cm/s
CLH [6]: 87.8 µL/min/mg
concentration at 5 min [7]: 1240 ng/mL
concentration at 8 h [8]: 54.8 ng/mL
PPB [9]: > 99%
t1/2 [10]: 30.6 min
EC50 [11]: 692 nM
concentration at 1 h [12]: 93.8 ng/mL
concentration at 0.5 h [13]: 59.5 ng/mL
t1/2 [14]: 88.3 min
Drug excretion [15]: Active
concentration at 0.25 h [16]: 173 ng/mL
concentration at 1 h [17]: 12.1 ng/mL
solubility kinetic at 2 h [18]: < 1 µg/mL
IC50 [19]: 148 nM
PPB [20]: > 99%
PB [21]: > 99%
concentration at 0.25 h [22]: 8.7 ng/mL
t1/2 [23]: 15.8 min
CLH [24]: 39.9 µL/min/mg
Compound: O=c1c(NCCc2cccc(Cl)c2)c(Nc2ccc(Cl)cc2)c1=O

Activity [25]: < 50%
Activity [26]: < 30%
IC50 [27]: 871 nM
Compound: O=c1c(NCCCc2ccccc2)c(Nc2ccc(Cl)cc2)c1=O

Activity [25]: < 50%
Activity [26]: < 30%
Compound: O=c1c(NCCc2ccncc2)c(Nc2ccc(Cl)cc2)c1=O

Activity [25]: < 50%
IC50 [4]: 912 nM
Activity [26]: < 30%
IC50 [27]: 195 nM
Compound: Cc1cccc(CCNc2c(Nc3ccc(Cl)cc3)c(=O)c2=O)c1

Activity [25]: < 50%
Activity [26]: < 30%
Compound: O=c1c(NCCc2ccc(Cl)cc2)c(Nc2ccc(Cl)cc2)c1=O

Activity [25]: < 50%
Activity [26]: < 30%
IC50 [27]: 525 nM
Compound: COc1ccc(CCNc2c(Nc3ccc(Cl)cc3)c(=O)c2=O)cc1

Activity [25]: < 50%
Compound: O=C(Nc1ccc(Cl)cc1)Nc1cccc(-c2cccc(N3CCCC3)n2)c1

Activity [25]: < 50%
Activity [26]: < 30%
Compound: O=c1c(NCCc2ccc(N3CCCCC3)cc2)c(Nc2ccc(Cl)cc2)c1=O

Activity [25]: < 50%
Activity [26]: < 30%
IC50 [27]: 339 nM
Compound: O=c1c(NCCc2cccc(C(F)(F)F)c2)c(Nc2ccc(Cl)cc2)c1=O

Activity [25]: < 50%
Activity [26]: < 30%
Compound: O=c1c(NCCc2ccc(N3CCCC3)cc2)c(Nc2ccc(Cl)cc2)c1=O

Activity [25]: < 50%
Activity [26]: < 30%
IC50 [27]: 204 nM
Compound: O=c1c(NCCc2ccccc2)c(Nc2ccc(Cl)cc2)c1=O

Activity [25]: < 50%
Activity [26]: < 30%
Compound: COc1cccc(CCNc2c(Nc3ccc(Cl)cc3)c(=O)c2=O)c1

Compound: Cc1ccccc1CCNc1c(Nc2ccc(Cl)cc2)c(=O)c1=O
Activity [25]: < 50%
Activity [26]: < 30%
IC50 [27]: 1260 nM

Activity [25]: < 50%
Activity [26]: < 30%
Compound: O=c1c(NCCc2ccc(Cl)c(Cl)c2)c(Nc2ccc(Cl)cc2)c1=O

Activity [25]: < 50%
Activity [26]: < 30%
IC50 [27]: > 10000 nM
Compound: O=c1c(NCCc2cccc(O)c2)c(Nc2ccc(Cl)cc2)c1=O

Activity [25]: < 50%
IC50 [4]: 617 nM
Activity [26]: < 30%
IC50 [27]: 501 nM
Compound: CN(C)c1ccc(CCNc2c(Nc3ccc(Cl)cc3)c(=O)c2=O)cc1

Activity [25]: < 50%
Activity [26]: < 30%
Compound: O=c1c(NCCc2ccc(N3CCC3)cc2)c(Nc2ccc(Cl)cc2)c1=O

Activity [25]: < 50%
Activity [26]: < 30%
Compound: O=c1c(NCCc2ccc(F)cc2)c(Nc2ccc(Cl)cc2)c1=O
